This note sets out measurements from US20250388582A1, “NOVEL BICYCLIC HETEROARYL COMPOUND AND USE THEREOF” (ILDONG PHARMACEUTICAL CO., LTD., priority 2022, published 2025).

Molecules are shown by their SMILES. Where only a bound is given, the exact number is not on record here.

The target in one test is T1, human GST-PIKFYVE (Homo sapiens, UniProt Q9Y2I7).
T1 construct: GST; purchased Carna biosciences 11-118
Put plainly: ADP-Glo kinase assay, enzyme inhibition activity against human PIKFYVE (Carna biosciences). Format: biochemical. To be noted: inhibitory activity at final compound concentration 10 nM; 1 hour at room temperature. The essentials:
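Human GST-PIKFYVE (glutathione Sepharose-purified) was reacted with substrate and ATP for 1 h at room temperature in 50 mM MOPS, 1 mM DTT, pH 7.2, with compound at 10 nM final. ADP formed was read by ADP-Glo luminescence; inhibition was calculated against no-enzyme (100%) and no-compound (0%) controls.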
(In general: ADP-Glo first removes unused ATP, then detects ADP through luciferase.)

A further test deals with T2, PIKFYVE (Homo sapiens, UniProt Q9Y2I7).
T2 construct: host or cells: HEK293 (ATCC, CRL-1573)
The test can be described thus: NanoBRET TE Intracellular Kinase Assay, interaction of PIKFYVE and compounds in HEK293 cells. Format: cell-based. To be noted: IC50 class from BRET; HEK293 cells expressing PIKFYVE-NanoLuc; 2 hours incubation. On the procedure:
To predict the efficacy of the compounds according to Example on PIKFYVE in humans, the interaction between PIKFYVE and the compounds was tested using the HEK293 cell line derived from human embryonic kidney (ATCC, CRL-1573) via NanoBRETT TE Intracellular Kinase Assay Service of Carna biosciences Inc., (Japan). The evaluation method provided by Carna biosciences Inc., was shown below and the NanoBRET™ TE Intracellular Kinase Assay, K-8 Kit (Promega, CS1810C88) was used.
The HEK-293 cells cultured in Opti-MEM™ I Reduced Serum Medium (Thermo Fisher, 11058-021) were transfected with Transfection Carrier DNA (Promega, E4881), PIKFYVE-NanoLuc Fusion Vector (Promega, CS1810C225), and FuGENE HD Transfection Reagent (Promega, E2311) to produce cells expressing genes combining PIKFYVE and NanoLuc, followed by culturing 100 μl (2×10^5 cells/ml) each in 96-well plates (Corning, 3917).
10× compounds according to Examples or Comparative Examples prepared by concentration in 1× NanoBRET™ tracer reagent and DMSO were reacted in 96-well plates and incubated for 2 hours in a 37° C., 5% CO2 incubator.
After the reaction was completed, 3× Complete NanoBRET™ Nano-Glo Substrate solution was added to each well, and the reaction was allowed to run for 2-3 minutes at room temperature before BRET was measured using a GloMax Discover Multimode Microplate Reader (Promega).
(Bioluminescence resonance energy transfer reports proximity on the nanometre scale.)

T2 sequence (Q9Y2I7 whole entry): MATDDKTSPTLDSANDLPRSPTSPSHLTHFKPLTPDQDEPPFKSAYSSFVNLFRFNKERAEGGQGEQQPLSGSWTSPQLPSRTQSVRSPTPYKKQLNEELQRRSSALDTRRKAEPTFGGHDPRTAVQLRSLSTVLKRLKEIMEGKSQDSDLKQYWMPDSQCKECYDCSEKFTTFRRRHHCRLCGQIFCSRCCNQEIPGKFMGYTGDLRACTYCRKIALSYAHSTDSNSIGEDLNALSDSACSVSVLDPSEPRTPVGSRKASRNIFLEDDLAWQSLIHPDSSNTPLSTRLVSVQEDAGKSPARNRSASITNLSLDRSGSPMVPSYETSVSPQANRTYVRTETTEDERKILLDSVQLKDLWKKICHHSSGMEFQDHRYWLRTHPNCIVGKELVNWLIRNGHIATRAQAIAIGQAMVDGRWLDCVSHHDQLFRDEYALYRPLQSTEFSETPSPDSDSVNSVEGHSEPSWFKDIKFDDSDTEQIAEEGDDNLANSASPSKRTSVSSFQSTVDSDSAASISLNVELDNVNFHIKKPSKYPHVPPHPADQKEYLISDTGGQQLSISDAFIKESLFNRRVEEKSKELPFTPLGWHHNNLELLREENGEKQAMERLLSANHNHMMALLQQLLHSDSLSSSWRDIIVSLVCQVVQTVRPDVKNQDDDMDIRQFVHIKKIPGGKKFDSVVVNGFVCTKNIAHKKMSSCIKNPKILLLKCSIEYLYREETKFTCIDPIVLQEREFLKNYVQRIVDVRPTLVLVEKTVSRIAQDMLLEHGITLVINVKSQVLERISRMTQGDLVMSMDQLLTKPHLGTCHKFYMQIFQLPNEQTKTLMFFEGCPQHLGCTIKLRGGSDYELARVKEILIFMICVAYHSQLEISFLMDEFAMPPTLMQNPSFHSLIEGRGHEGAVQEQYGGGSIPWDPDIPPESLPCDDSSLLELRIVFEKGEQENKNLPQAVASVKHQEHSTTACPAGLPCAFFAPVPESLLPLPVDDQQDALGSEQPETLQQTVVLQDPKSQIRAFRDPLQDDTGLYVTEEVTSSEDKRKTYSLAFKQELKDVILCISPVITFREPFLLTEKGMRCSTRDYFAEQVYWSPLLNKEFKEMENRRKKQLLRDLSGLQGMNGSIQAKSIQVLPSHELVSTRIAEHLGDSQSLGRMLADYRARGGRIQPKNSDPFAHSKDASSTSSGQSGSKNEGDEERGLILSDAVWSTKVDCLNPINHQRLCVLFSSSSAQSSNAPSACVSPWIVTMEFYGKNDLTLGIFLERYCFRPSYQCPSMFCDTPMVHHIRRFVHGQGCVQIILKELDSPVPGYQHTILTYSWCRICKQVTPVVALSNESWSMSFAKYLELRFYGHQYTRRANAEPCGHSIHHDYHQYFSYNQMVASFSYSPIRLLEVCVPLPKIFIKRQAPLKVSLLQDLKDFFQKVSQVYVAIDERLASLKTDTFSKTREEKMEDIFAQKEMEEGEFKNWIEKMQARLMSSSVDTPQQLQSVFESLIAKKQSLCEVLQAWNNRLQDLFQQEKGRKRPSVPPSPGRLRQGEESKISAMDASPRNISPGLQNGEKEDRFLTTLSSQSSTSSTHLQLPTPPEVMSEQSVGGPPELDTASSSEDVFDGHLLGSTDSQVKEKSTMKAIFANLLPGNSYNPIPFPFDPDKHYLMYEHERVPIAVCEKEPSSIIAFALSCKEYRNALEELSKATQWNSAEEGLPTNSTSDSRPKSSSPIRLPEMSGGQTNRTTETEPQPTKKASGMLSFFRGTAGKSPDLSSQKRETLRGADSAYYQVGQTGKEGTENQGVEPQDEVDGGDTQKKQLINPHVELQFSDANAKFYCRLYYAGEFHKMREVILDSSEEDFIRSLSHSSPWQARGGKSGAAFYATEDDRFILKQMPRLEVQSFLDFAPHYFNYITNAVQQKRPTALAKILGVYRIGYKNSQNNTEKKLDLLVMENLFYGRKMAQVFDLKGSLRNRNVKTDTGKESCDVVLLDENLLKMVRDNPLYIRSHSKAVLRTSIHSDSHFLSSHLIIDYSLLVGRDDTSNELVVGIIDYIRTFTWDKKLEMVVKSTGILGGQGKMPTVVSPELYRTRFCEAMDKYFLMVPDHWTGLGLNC
T1 sequence (Q9Y2I7 whole entry): as above

On to `Cc1cccc(/C=N/Nc2nc(N3CCOCC3)nc3c2ncn3CC(=O)c2ccc(Cl)cc2)c1` [Example 25, (E)-1-(4-chlorophenyl)-2-(6-(2-(3-methylbenzylidene)hydrazinyl)-2-morpholino-9H-purin-9-yl)ethan-1-one], for which the “ADP-Glo kinase assay (%, 10 nM)” value at human GST-PIKFYVE was found to be 72.46%. The IC50 at PIKFYVE is 10 to 20 nM.
Take `Cc1cccc(/C=N/Nc2nc(N3CCOCC3)nc3c2ncn3CC(=O)c2cccc(C)c2)c1` [Example 41, (E)-2-(6-(2-(3-methylbenzylidene)hydrazinyl)-2-morpholino-9H-purin-9-yl)-1-(m-tolyl)ethan-1-one]: on human GST-PIKFYVE, the “ADP-Glo kinase assay (%, 10 nM)” value came out at 76.69%. Also, the 50% inhibitory concentration (IC50) against PIKFYVE is at most 10 nM.
Regarding `Cc1cccc(-c2ccn(-c3nc(N4CCOCC4)nc4c3ncn4-c3cccnc3)n2)c1` [Example 118, 4-(9-(pyridin-3-yl)-6-(3-(m-tolyl)-1H-pyrazol-1-yl)-9H-purin-2-yl)morpholine], the “ADP-Glo kinase assay (%, 10 nM)” value at human GST-PIKFYVE was 81.33%. Moreover, on PIKFYVE, the IC50 was at most 10 nM.
Taken in the same sequence, the figures for `Cc1cccc(/C=N/Nc2nc(N3CCOCC3)nc3c2ncn3CC(=O)c2ccc(C#N)cc2)c1` [Example 35, (E)-4-(2-(6-(2-(3-methylbenzylidene)hydrazinyl)-2-morpholino-9H-purin-9-yl)acetyl)benzonitrile] were 70.11% and 10 to 20 nM.
Taken in the same sequence, the figures for `Cc1cccc(/C=N/Nc2nc(N3CCOCC3)nc3c2ncn3-c2ccc(Cl)cc2)c1` [Example 100, (E)-4-(9-(4-chlorophenyl)-6-(2-(3-methylbenzylidene)hydrazinyl)-9H-purin-2-yl)morpholine] were 83.22% and at most 10 nM.
As for `Cc1cccc(/C=N/Nc2nc(N3CCOC[C@@H]3C)nc3c2ncn3-c2cccnc2)c1` [Example 97, (S,E)-3-methyl-4-(6-(2-(3-methylbenzylidene)hydrazinyl)-9-(pyridin-3-yl)-9H-purin-2-yl)morpholine], at human GST-PIKFYVE, the “ADP-Glo kinase assay (%, 10 nM)” value was 78.47%. The compound further yielded an IC50 at PIKFYVE of 10 to 20 nM.
Taken in the same sequence, the figures for `COc1ccccc1C(=O)Cn1cnc2c(N/N=C/c3cccc(C)c3)nc(N3CCOCC3)nc21` [Example 37, (E)-1-(2-methoxyphenyl)-2-(6-(2-(3-methylbenzylidene)hydrazinyl)-2-morpholino-9H-purin-9-yl)ethan-1-one] were 89.07% and at most 10 nM.
As for `Cc1cccc(/C=N/Nc2nc(N3CCOCC3)nc3c2ncn3CC(C)C)c1` [Example 17, (E)-4-(9-isobutyl-6-(2-(3-methylbenzylidene)hydrazinyl)-9H-purin-2-yl)morpholine], at human GST-PIKFYVE, the “ADP-Glo kinase assay (%, 10 nM)” value is given as 69.26%. The compound also registered an IC50 at PIKFYVE of 10 to 20 nM.
Taken in the same sequence, the figures for `Cc1cccc(/C=N/Nc2nc(N3CCOCC3)nc3c2ncn3CC(=O)c2cccnc2)c1` [Example 28, (E)-2-(6-(2-(3-methylbenzylidene)hydrazinyl)-2-morpholino-9H-purin-9-yl)-1-(pyridin-3-yl)ethan-1-one] were 65.48% and 20 to 30 nM.
As for `Cc1cccc(/C=N/Nc2nc(N3CCOCC3)nc3c2ncn3-c2ccc(C)nc2)c1` [Example 110, (E)-4-(6-(2-(3-methylbenzylidene)hydrazinyl)-9-(6-methylpyridin-3-yl)-9H-purin-2-yl)morpholine], the “ADP-Glo kinase assay (%, 10 nM)” value at human GST-PIKFYVE was found to be 88.60%. The compound also returned an IC50 against PIKFYVE of at most 10 nM.
Consider `Cc1cccc(/C=N/Nc2nc(N3CCOCC3)nc3c2ncn3-c2ccccn2)c1` [Example 99, (E)-4-(6-(2-(3-methylbenzylidene)hydrazinyl)-9-(pyridin-2-yl)-9H-purin-2-yl)morpholine], for which the “ADP-Glo kinase assay (%, 10 nM)” value on human GST-PIKFYVE came out at 87.24%. The compound also registered an IC50 against PIKFYVE of at most 10 nM.
For `C(=N\Nc1nc(N2CCOCC2)nc2c1ncn2-c1ccncc1)/c1c[nH]c2ccccc12` [Example 112, (E)-4-(6-(2-((1H-indol-3-yl)methylene)hydrazinyl)-9-(pyridin-4-yl)-9H-purin-2-yl)morpholine] the same measures were 89.10% and at most 10 nM.
Consider `Cc1cccc(/C=N/Nc2nc(N3CCOCC3)nc3c2ncn3CC2(C)COC2)c1` [Example 74, (E)-4-(6-(2-(3-methylbenzylidene)hydrazinyl)-9-((3-methyloxetan-3-yl)methyl)-9H-purin-2-yl)morpholine], for which the “ADP-Glo kinase assay (%, 10 nM)” value on human GST-PIKFYVE came out at 69.71%. For the same compound, on PIKFYVE, the IC50 was 20 to 30 nM.
Consider `COc1ccc(-n2cnc3c(N/N=C/c4cccc(C)c4)nc(N4CCOCC4)nc32)cn1` [Example 113, (E)-4-(9-(6-methoxypyridin-3-yl)-6-(2-(3-methylbenzylidene)hydrazinyl)-9H-purin-2-yl)morpholine], for which the “ADP-Glo kinase assay (%, 10 nM)” value on human GST-PIKFYVE amounted to 87.10%. Also, the IC50 at PIKFYVE was at most 10 nM.
Taken in the same sequence, the figures for `Cc1cccc(/C=N/Nc2nc(N3CCOCC3)nc3c2ncn3-c2cccc(OC3CC3)c2)c1` [Example 125, (E)-4-(9-(3-cyclopropoxyphenyl)-6-(2-(3-methylbenzylidene)hydrazinyl)-9H-purin-2-yl)morpholine] were 65.27% and at most 10 nM.
For `Cc1cccc(/C=N/Nc2nc(N3CCOCC3)nc3c2ncn3CC(=O)c2cccc(C(F)(F)F)c2)c1` [Example 44, (E)-2-(6-(2-(3-methylbenzylidene)hydrazinyl)-2-morpholino-9H-purin-9-yl)-1-(3-(trifluoromethyl)phenyl)ethan-1-one], the “ADP-Glo kinase assay (%, 10 nM)” value at human GST-PIKFYVE is 62.80%. This compound gave an IC50 against PIKFYVE of 20 to 30 nM.
For `Cc1cccc(/C=N/Nc2nc(N3CCOCC3)nc3c(-c4c(C)noc4C)cccc23)c1` [Example 210, (E)-4-(8-(3,5-dimethylisoxazol-4-yl)-4-(2-(3-methylbenzylidene)hydrazinyl)quinazolin-2-yl)morpholine] the same measures were 65.10% and 20 to 30 nM.
For `Cc1cccc(/C=N/Nc2nc(N3CCOCC3)nc3c2ncn3-c2cc(C)ns2)c1` [Example 148, (E)-4-(6-(2-(3-methylbenzylidene)hydrazinyl)-9-(3-methylisothiazol-5-yl)-9H-purin-2-yl)morpholine] the same measures were 73.88% and at most 10 nM.
With `Cc1cccc(/C=N/Nc2nc(N3CCOCC3)nc3c2ncn3CC(=O)c2ccc(F)cn2)c1` [Example 53, (E)-1-(5-fluoropyridin-2-yl)-2-(6-(2-(3-methylbenzylidene)hydrazinyl)-2-morpholino-9H-purin-9-yl)ethan-1-one], at human GST-PIKFYVE, the “ADP-Glo kinase assay (%, 10 nM)” value is 70.90%. The compound also gave an IC50 on PIKFYVE of 20 to 30 nM.
For `Cc1cccc(/C=N/Nc2nc(N3CCOCC3)nc3c2ncn3CC(=O)c2ccccc2C)c1` [Example 40, (E)-2-(6-(2-(3-methylbenzylidene)hydrazinyl)-2-morpholino-9H-purin-9-yl)-1-(o-tolyl)ethan-1-one] the same measures were 86.29% and at most 10 nM.
For `COc1ccccc1-n1cnc2c(N/N=C/c3cccc(C)c3)nc(N3CCOCC3)nc21` [Example 124, (E)-4-(9-(2-methoxyphenyl)-6-(2-(3-methylbenzylidene)hydrazinyl)-9H-purin-2-yl)morpholine] the same measures were 87.81% and at most 10 nM.

By IC50 is commonly meant the concentration at which inhibition is half-maximal. A high value points to lower potency.
